Results: EPA's ToxValDB 9.5 (doi:10.2903/j.efsa.2007.105r)
≈ marks a conversion by molar mass, not a printed value.

What was measured:
Aphidius rhopalosiphi = assay: LR50; higher = less toxic; conditions: acute; duration: 48 hours; mortality
Bibionidae = conditions: chronic/long-term; duration: 28 days
Apis mellifera = conditions: acute; duration: 48 hours; dermal; mortality
Anas platyrhynchos = conditions: reproductive
Colinus virginianus = conditions: acute, mortality
Daphnia magna = conditions: chronic/long-term; duration: 21 days; reproduction

## Cc1cc(C)c(C2=C(OC(=O)CC(C)(C)C)C3(CCCC3)OC2=O)c(C)c1 [Spiromesifen]
Aphidius rhopalosiphi
  LR50: 40.6 mL/ha
Bibionidae
  NOEC: 0.032 mg/L
Mus musculus; chronic, duration: 18 months
  NOAEL: 3 mg/kg-day
Mus musculus; subchronic, duration: 90 days, oral, clinical chemistry
  NOAEL: 3 mg/kg-day
Apis mellifera
  LD50: > 200 µg/piece
Oncorhynchus mykiss; acute, duration: 96 hours, mortality
  LC50: 0.016 µg/mL (≈ 0.0432 µM)
Oncorhynchus mykiss; chronic/long-term, duration: 97 days, time to swim up
  NOEC: 0.00473 mg/L
Tagia sp.; acute, duration: 14 days, mortality
  LC50: > 1000 mg/kg
Tagia sp.; chronic/long-term, duration: 56 days, reproduction
  NOEC: 4.32 mg/kg
Anas platyrhynchos
  NOEC: 229 mg/kg
Anas platyrhynchos; mortality
  LC50: > 5000 mg/kg
Colinus virginianus
  LC50: > 5000 mg/kg
  LD50: > 1160 mg/kg
Colinus virginianus; oral, diet
  LD50: > 2000 mg/kg
Daphnia magna
  NOEC: 0.00025 mg/L
Rattus norvegicus; acute
  NOAEL: 200 mg/kg-day
Rattus norvegicus; acute, oral, mortality
  LD50: > 2500 mg/kg
Rattus norvegicus; chronic
  NOEC: 30 mg/kg-day
